These results are taken from PubChem BioAssay AID720512 (Broad Institute, 2013).

Calls of active or inactive are those of the source. How the calls were made is not given here.

One assay concerns the target Toxin B (TcdB) glycohydrolase, Clostridioides difficile 630. In words: TcdB glycohydrolase inhibitors, dose response, biochemical, cherry-pick, plate reader (AID 720512). The following applies: recombinant TcdB glycohydrolase activity.
Turning to `CN1c2ccc(-c3ccccc3)cc2[C@@H]2[C@@H](CCN2C(=O)CN2CCOCC2)[C@@H]1CO`, the AC50 (in general, the midpoint of the concentration-response curve, whichever way the signal moves) is > 39 µM (inactive).
On the same count and under the same terms, with `COCC(=O)N1CC[C@H]2[C@@H]1c1cc(-c3ccc(OC)cc3)ccc1N(C)[C@H]2CO` the figure was > 39 µM (inactive).
On the same count and under the same terms, with `Oc1ccc2ccc3[nH]cnc3c2c1` the figure was > 39 µM (inactive); with `CC(=O)N1CC[C@@H]2[C@@H](CO)N(C)c3ccc(-c4ccccc4)cc3[C@@H]21`, > 42 µM (inactive); with `CC(=O)Nc1cccc2cc(O)ccc12`, > 39 µM (inactive).
Same read-out and setting: with `CC(=O)Oc1ccc(/C=N/NC(=O)CCSc2ccccc2)cc1` the figure was > 39 µM (inactive); with `CCn1c(C)nc2cc(C(=O)N/N=C/c3ccc(OC)c(O)c3)ccc21`, > 39 µM (inactive); with `COc1cc(/C=C/C(=O)OCC(=O)NC(=O)NC(C)C)ccc1O`, > 39 µM (inactive).
`Cc1ccc(-n2c(SCC(=O)O)nc3c(sc(=S)n3-c3ccc(C)c(C)c3)c2=O)cc1`: the AC50 is > 39 µM (inactive).

The same assay, now with this note: recombinant TcdB glycohydrolase activity, at 19.5 µM (top of the series).
For the compound `S=c1nc(-c2ccc(Cl)cc2)[nH][nH]1`, the “activity change, negative = inhibition” value was “inactive”.
In the case of `Cc1ccc(C(=O)OCC(=O)c2cc(C)n(CC3CCCO3)c2C)cc1` (stereo not drawn), the “activity change, negative = inhibition” value is “inactive”.
The same measure, in the same setting: the entry for `O=CN(c1ccccc1)c1ccc2ccccc2c1` is “inactive”; for `CCCCn1c(N)c(N(CC)C(=O)c2cccs2)c(=O)[nH]c1=O` it is “inactive”; for `CN1CCN(CC(=O)Nc2cc(N(C)C)nc3ccccc23)CC1` it is “inactive”.
The same measure, in the same setting: the entry for `O=C(C[C@H]1CC[C@@H]2[C@H](COC[C@@H](O)CN2C(=O)Nc2ccc(Cl)c(Cl)c2)O1)NCc1ccncc1` is “inactive”.
As to `Oc1ccc(-c2nc3cnccn3c2Nc2ccc3c(c2)OCCO3)cc1`, the “activity change, negative = inhibition” value was “inactive”.
The same measure, in the same setting: with `O=C(O)C1C(=O)NCC1c1ccccc1` (stereo not drawn) the entry was “inactive”; with `Cc1nc2ccccn2c1-c1ccnn1S(=O)(=O)c1ccc(F)cc1`, “inactive”.
The same measure, in the same setting: with `Cc1c(CNC(=O)c2c([N+](=O)[O-])cnn2C)cnn1C` the entry was “inactive”.
For the compound `CCCN1CCN(C(=O)C2CCN(S(=O)(=O)c3c(C)noc3/C=C/c3ccc(C)cc3)CC2)CC1`, the “activity change, negative = inhibition” value is “inactive”.
For `Cn1c(=O)c2c([nH]c(=S)n2Cc2ccc(Cl)cc2)n(C)c1=O`, the “activity change, negative = inhibition” value was “inactive”.
Still for that read-out and setting: the entry for `CC(C)(C)C(=O)C1=C(O)C(=O)N(c2ccccc2)C1c1ccccc1` (stereo not drawn) is “inactive”; for `COc1cc(/C=C/c2sc3ccccc3[n+]2CCCS(=O)(=O)[O-])ccc1O` it is “inactive”; for `COc1ccc(CNC(=O)C2=CC(c3ccc(OC)cc3)=NS(=O)(=O)N2C)cc1` it is “inactive”.
Same read-out and setting: the entry for `O=c1c2oc3nc4c(cc3c2ncn1CCCc1ccccc1)CCCC4` is “inactive”; for `O=C(OCC(=O)N1CCCc2ccccc21)c1ccc(C(F)(F)F)cc1` it is “inactive”.
Still for that read-out and setting: the entry for `N#Cc1ccc(C(=O)N/N=C/c2cn(CC(=O)O)c3ccccc23)c(F)c1` is “inactive”; for `CN(C)c1ccc(NC(=O)/C=C/c2c(Cl)cccc2Cl)cc1` it is “inactive”.
Consider `C[C@H](CO)N1C[C@H](C)[C@@H](CN(C)C(=O)Nc2ccc(C(F)(F)F)cc2)Oc2ccc(NC(=O)C3CCCCC3)cc2C1=O`, for which the “activity change, negative = inhibition” value was “inactive”.
On to `CCOc1ccccc1/C=C/c1onc(C)c1S(=O)(=O)N1CCC(C(=O)N2CCCCCC2)CC1`, for which the “activity change, negative = inhibition” value is “inactive”.
Same read-out and setting: with `COC(=O)C(C(=O)OC)C(CC(=O)c1ccc(Br)cc1)c1ccccc1` (stereo not drawn) the entry was “inactive”.
`Oc1ccc(/C=N/Nc2ncnc3nc[nH]c23)cc1`: the “activity change, negative = inhibition” value was “inactive”.
Same read-out and setting: the entry for `CC(C)(C)N1C(=O)c2ccc(C(=O)Nc3ccc(O)cc3)cc2C1=O` is “inactive”.
The same measure, in the same setting: the entry for `COc1ccc(C(=O)Nc2ccc3c(c2)C(=O)N(C)[C@@H]2CC[C@H](CC(=O)NCC4CC4)O[C@@H]2CO3)cc1` is “inactive”.
Same read-out and setting: the entry for `CCN1CC(CNCc2cn(-c3ccc(OC)cc3)nc2-c2ccccc2Cl)CC1=O` (stereo not drawn) is “inactive”.
Regarding `O=C(O)c1cc(-c2ccccc2Cl)n(-c2cccc(Cl)c2)n1`, the “activity change, negative = inhibition” value is “inactive”.
With `O=C(C[C@H]1C[C@@H]2c3cc(NC(=O)c4ccc5c(c4)OCO5)ccc3O[C@@H]2[C@@H](CO)O1)NCc1cccc(F)c1`, the “activity change, negative = inhibition” value was “inactive”.
The same measure, in the same setting: with `CN(C)c1ccc(/C=C/c2cccc[n+]2[O-])cc1` the entry was “inactive”; with `Cc1ccc(CSc2nc3nc(C)cc(C)c3c(=O)[nH]2)cc1`, “inactive”.
As for `NC(=O)CC(NC(=O)c1ccccc1)c1ccc(NCCc2ccc(F)cc2)c([N+](=O)[O-])c1` (stereo not drawn), the “activity change, negative = inhibition” value is “inactive”.
Still for that read-out and setting: the entry for `Cc1ccc(NC(=O)C2OCCc3ccccc32)cc1C` (stereo not drawn) is “inactive”.
For the compound `COc1ccc(C2=NS(=O)(=O)N(C)C(C(=O)N3CCc4ccccc4C3)=C2)cc1OC`, the “activity change, negative = inhibition” value was “inactive”.
As for `CNC(=O)N(O)C1N(/N=C/c2ccc(SC)cc2)C(=S)SC1(C)C` (stereo not drawn), the “activity change, negative = inhibition” value was “inactive”.
Turning to `CCOc1ccccc1-n1c(C)nc2cc(C(=O)O)ccc21`, the “activity change, negative = inhibition” value is “inactive”.
In the case of `CN(C)/C=C(\C#N)C(=O)Nc1ccc(O)cc1F`, the “activity change, negative = inhibition” value is “inactive”.
The same measure, in the same setting: the entry for `COc1ccc(C2=NS(=O)(=O)N(C)C(C(=O)NCc3ccc(F)cc3)=C2)cc1OC` is “inactive”; for `CCOc1ccc(S(=O)(=O)NCCC(=O)NCc2ccccn2)cc1` it is “inactive”.
Still for that read-out and setting: with `CC(=O)C(Sc1nccc(-c2cccs2)n1)C(C)=O` the entry was “inactive”.
Still for that read-out and setting: with `CCCc1[nH]c(=O)c(C#N)c2c1CCCC2` the entry was “inactive”; with `COC(=O)[C@@]12CCCCN1[C@H](c1ccc(-c3ccccc3)c(OC)c1)[C@H]1C(=O)N(C)C(=O)[C@H]12`, “inactive”; with `COc1ccc(Cl)cc1NC(=O)CN(C)C(=O)c1cc2c(s1)CCCC2`, “inactive”.
For the compound `Nc1ccc(OC(=O)Nc2ccc(O)cc2)cc1`, the “activity change, negative = inhibition” value is “inactive”.
Still for that read-out and setting: the entry for `O=C(Nc1ccccc1F)N1C[C@@H]2N[C@H](C1)C2c1ccc(-c2cccc(F)c2)cc1` (stereo partly drawn) is “inactive”; for `COc1cc(-c2n[nH]c(=S)n2/N=C/c2cccn2C)cc(OC)c1OC` it is “inactive”.
Same read-out and setting: the entry for `COc1cccc(-n2c(SCC(=O)N3CCOCC3)nnc2-c2c[nH]c3ccccc23)c1` is “inactive”; for `CC(=O)c1ccc(NC(=O)CNCC(c2ccccc2)N(C)C)cc1` (stereo not drawn) it is “inactive”; for `COc1ccc(CNC(=O)c2cc3c(s2)CN(Cc2ccccc2)C3)cc1` it is “inactive”.
Turning to `CCOC(=O)C(=O)NNc1ccc(Cl)cc1`, the “activity change, negative = inhibition” value is “inactive”.
